Measurements as given in US20170049716A1, “NITISINONE DOSING REGIMENS FOR THE TREATMENT OF ALKAPTONURIA” (Swedish Orphan Biovitrum International AB, priority 2014, published 2017).

Assays:
patients with HT-1 = conditions: cited from earlier work
homogentisic acid (HGA) [1] = conditions: 2 mg/day, 36 months, AKU patients; cited from earlier work
tyrosine = conditions: 2 mg daily, 20 patients, no diet restrictions, 3-year study; cited from earlier work
homogentisic acid (HGA) [2] = test: Serum HGA (s-HGA) 24-hour profile, dose-response study in patients with AKU; assay type: in vivo, human; conditions: for Patients with no quantifiable serum HGA concentration in any sample over the 24-hour dosage interval: group of 8 patients, LLOQ 3.1 μmol/L
Experimental: A randomized, open-label, parallel-group dose-response study with a no-treatment control group was performed. Patients with AKU were randomized to receive either 1 mg, 2 mg, 4 mg or 8 mg nitisinone once daily (oral administration) or no treatment (control). Forty patients were randomized, equally distributed amongst the five groups (8 patients per group). Nitisinone was administered as an oral suspension containing 4 mg/mL. The following dose volumes were administered once daily, in the morning: Measurements of serum HGA (s-HGA) and tyrosine (s-Tyr) concentrations were performed at weeks 0, 2 and 4. At all visits a full 24-hour profile was determined at the following time-points: pre-dose (immediately after breakfast) and 0.5, 1,2, 3, 4, 6, 8, 10, 12, 15, 18,24 hours post-dose. The concentrations of HGA and tyrosine in the serum were measured by liquid chromatography tandem mass spectrometry (LCMSMS). The lower limit of quantification (LLOQ) for HGA was 3.1 μmol/L. Maximum and daily average serum concentrations of HGA and tyrosine were determined. The daily average concentrations were determined by dividing the area under the concentration vs. time curves, calculated by means of the trapezoidal rule, by 24.

patients with AKU = conditions: 2 mg/day, 36 months; cited from earlier work
homogentisic acid (HGA) [3] = test: Urinary excretion of HGA over 24 hours (u-HGA24), dose-response study in patients with AKU; assay type: in vivo, human; conditions: for Relative decrease in u-HGA24, max / Relative decrease in u-HGA24, mean / Relative decrease in u-HGA24, median / Relative decrease in u-HGA24, min: baseline to week 4, N = 8
Experimental: A randomized, open-label, parallel-group dose-response study with a no-treatment control group was performed. Patients with AKU were randomized to receive either 1 mg, 2 mg, 4 mg or 8 mg nitisinone once daily (oral administration) or no treatment (control). Forty patients were randomized, equally distributed amongst the five groups (8 patients per group). Nitisinone was administered as an oral suspension containing 4 mg/mL. The following dose volumes were administered once daily, in the morning: Urinary excretion of HGA over a 24-hour period (u-HGA24) was assessed at weeks 0, 2 and 4. Urine was collected into 2.5-L bottles containing 30 mL of 5N H2SO4. The exact length of the collection interval and the volume of the collected urine were recorded. The concentration of HGA in the urine was measured by liquid chromatography tandem mass spectrometry (LCMSMS). The 24-hour excretion of HGA was calculated by multiplying the concentration with the volume of the collected urine, and correcting for any deviation from a 24-hour collection period. (There were no reports of missed samples within the collection interval.)

[4] = 1 mg once daily oral, Week 0 (baseline), N = 8
[5] = 1 mg once daily oral, Week 4, N = 8
[6] = 2 mg once daily oral, Week 0 (baseline), N = 8
[7] = 2 mg once daily oral, Week 4, N = 8
[8] = 4 mg once daily oral, Week 0 (baseline), N = 8
[9] = 4 mg once daily oral, Week 4, N = 8
[10] = 8 mg once daily oral, Week 0 (baseline), N = 8
[11] = 8 mg once daily oral, Week 4, N = 8

O=C1CCCC(=O)C1C(=O)c1ccc(C(F)(F)F)cc1[N+](=O)[O-] [nitisinone, 2-[2-nitro-4-(trifluoromethyl)benzoyl]-1,3-cyclohexanedione]
IQ of treated children versus unaffected siblings (patients with HT-1; children treated with nitisinone (Bendadi et al.)): considerably lower
Cognitive impairment causing schooling difficulties, patients affected (patients with HT-1; school-age patients with HT-1 treated with nitisinone (Masurel-Paulet et al.)): eight out of 23
Reduction of urinary excretion on average, compared to pre-treatment levels (homogentisic acid (HGA) [1]): about 95%
Tyrosine levels, average (tyrosine): 800 µM
Tyrosine levels, range (tyrosine): 332 to 1528 µM
Daily average serum concentration of HGA, max (homogentisic acid (HGA) [2]; [4]): 44.1 µmol/L
Daily average serum concentration of HGA, mean (homogentisic acid (HGA) [2]; [4]): 34.2 µmol/L
Daily average serum concentration of HGA, median (homogentisic acid (HGA) [2]; [4]): 33.0 µmol/L
Daily average serum concentration of HGA, min (homogentisic acid (HGA) [2]; [4]): 25.5 µmol/L
Daily average serum concentration of HGA, max (homogentisic acid (HGA) [2]; [5]): 7.3 µmol/L
Daily average serum concentration of HGA, mean (homogentisic acid (HGA) [2]; [5]): 4.1 µmol/L
Daily average serum concentration of HGA, median (homogentisic acid (HGA) [2]; [5]): 3.9 µmol/L
Daily average serum concentration of HGA, min (homogentisic acid (HGA) [2]; [5]): 3.1 µmol/L
Daily average serum concentration of HGA, max (homogentisic acid (HGA) [2]; [6]): 59.1 µmol/L
Daily average serum concentration of HGA, mean (homogentisic acid (HGA) [2]; [6]): 36.6 µmol/L
Daily average serum concentration of HGA, median (homogentisic acid (HGA) [2]; [6]): 34.2 µmol/L
Daily average serum concentration of HGA, min (homogentisic acid (HGA) [2]; [6]): 25.1 µmol/L
Daily average serum concentration of HGA, max (homogentisic acid (HGA) [2]; [7]): 5.8 µmol/L
Daily average serum concentration of HGA, median (homogentisic acid (HGA) [2]; [7]): <3.1 µmol/L
Daily average serum concentration of HGA, min (homogentisic acid (HGA) [2]; [7]): <3.1 µmol/L
Patients with no quantifiable serum HGA concentration in any sample over the 24-hour dosage interval (homogentisic acid (HGA) [2]; 2 mg): 3
Daily average serum concentration of HGA, max (homogentisic acid (HGA) [2]; [8]): 49.9 µmol/L
Daily average serum concentration of HGA, mean (homogentisic acid (HGA) [2]; [8]): 38.5 µmol/L
Daily average serum concentration of HGA, median (homogentisic acid (HGA) [2]; [8]): 37.7 µmol/L
Daily average serum concentration of HGA, min (homogentisic acid (HGA) [2]; [8]): 28.9 µmol/L
Daily average serum concentration of HGA, max (homogentisic acid (HGA) [2]; [9]): <3.1 µmol/L
Daily average serum concentration of HGA, median (homogentisic acid (HGA) [2]; [9]): <3.1 µmol/L
Daily average serum concentration of HGA, min (homogentisic acid (HGA) [2]; [9]): <3.1 µmol/L
Patients with no quantifiable serum HGA concentration in any sample over the 24-hour dosage interval (homogentisic acid (HGA) [2]; 4 mg): 4
Daily average serum concentration of HGA, max (homogentisic acid (HGA) [2]; [10]): 47.7 µmol/L
Daily average serum concentration of HGA, mean (homogentisic acid (HGA) [2]; [10]): 36.6 µmol/L
Daily average serum concentration of HGA, median (homogentisic acid (HGA) [2]; [10]): 38.6 µmol/L
Daily average serum concentration of HGA, min (homogentisic acid (HGA) [2]; [10]): 25.2 µmol/L
Daily average serum concentration of HGA, median (homogentisic acid (HGA) [2]; [11]): <3.1 µmol/L
Daily average serum concentration of HGA, min (homogentisic acid (HGA) [2]; [11]): <3.1 µmol/L
Patients with no quantifiable serum HGA concentration in any sample over the 24-hour dosage interval (homogentisic acid (HGA) [2]; 8 mg): 7
Effect on primary efficacy variable, hip rotation (patients with AKU): failed to show an effect
u-HGA24, max (homogentisic acid (HGA) [3]; [4]): 69502.9 μmol/24h
u-HGA24, mean (homogentisic acid (HGA) [3]; [4]): 36757.0 μmol/24h
u-HGA24, median (homogentisic acid (HGA) [3]; [4]): 34034.4 μmol/24h
u-HGA24, min (homogentisic acid (HGA) [3]; [4]): 20743.4 μmol/24h
u-HGA24, max (homogentisic acid (HGA) [3]; [5]): 6752.8 μmol/24h
u-HGA24, mean (homogentisic acid (HGA) [3]; [5]): 3931.0 μmol/24h
u-HGA24, median (homogentisic acid (HGA) [3]; [5]): 3415.6 μmol/24h
u-HGA24, min (homogentisic acid (HGA) [3]; [5]): 1847.6 μmol/24h
Relative decrease in u-HGA24, max (homogentisic acid (HGA) [3]; 1 mg once daily oral): 91.05%
Relative decrease in u-HGA24, mean (homogentisic acid (HGA) [3]; 1 mg once daily oral): 88.72%
Relative decrease in u-HGA24, median (homogentisic acid (HGA) [3]; 1 mg once daily oral): 87.99%
u-HGA24, max (homogentisic acid (HGA) [3]; [6]): 40747.2 μmol/24h
u-HGA24, mean (homogentisic acid (HGA) [3]; [6]): 31439.8 μmol/24h
u-HGA24, median (homogentisic acid (HGA) [3]; [6]): 31754.7 μmol/24h
u-HGA24, min (homogentisic acid (HGA) [3]; [6]): 19994.2 μmol/24h
u-HGA24, max (homogentisic acid (HGA) [3]; [7]): 3484.1 μmol/24h
u-HGA24, mean (homogentisic acid (HGA) [3]; [7]): 1602.5 μmol/24h
u-HGA24, median (homogentisic acid (HGA) [3]; [7]): 1515.6 μmol/24h
u-HGA24, min (homogentisic acid (HGA) [3]; [7]): 627.0 μmol/24h
Relative decrease in u-HGA24, max (homogentisic acid (HGA) [3]; 2 mg once daily oral): 96.86%
Relative decrease in u-HGA24, mean (homogentisic acid (HGA) [3]; 2 mg once daily oral): 94.78%
Relative decrease in u-HGA24, median (homogentisic acid (HGA) [3]; 2 mg once daily oral): 95.64%
Relative decrease in u-HGA24, min (homogentisic acid (HGA) [3]; 2 mg once daily oral): 89.08%
u-HGA24 (homogentisic acid (HGA) [3]; 2 mg or higher per day, with one exception): less than 2000 μmol
u-HGA24, max (homogentisic acid (HGA) [3]; [8]): 55393.9 μmol/24h
u-HGA24, mean (homogentisic acid (HGA) [3]; [8]): 35453.4 μmol/24h
u-HGA24, median (homogentisic acid (HGA) [3]; [8]): 31502.7 μmol/24h
u-HGA24, min (homogentisic acid (HGA) [3]; [8]): 14442.9 μmol/24h
u-HGA24, max (homogentisic acid (HGA) [3]; [9]): 1478.4 μmol/24h
u-HGA24, mean (homogentisic acid (HGA) [3]; [9]): 733.8 μmol/24h
u-HGA24, median (homogentisic acid (HGA) [3]; [9]): 790.5 μmol/24h
u-HGA24, min (homogentisic acid (HGA) [3]; [9]): 164.2 μmol/24h
Relative decrease in u-HGA24, max (homogentisic acid (HGA) [3]; 4 mg once daily oral): 99.41%
Relative decrease in u-HGA24, mean (homogentisic acid (HGA) [3]; 4 mg once daily oral): 98.15%
Relative decrease in u-HGA24, median (homogentisic acid (HGA) [3]; 4 mg once daily oral): 98.19%
Relative decrease in u-HGA24, min (homogentisic acid (HGA) [3]; 4 mg once daily oral): 96.74%
u-HGA24, max (homogentisic acid (HGA) [3]; [10]): 32896.6 μmol/24h
u-HGA24, mean (homogentisic acid (HGA) [3]; [10]): 27353.5 μmol/24h
u-HGA24, median (homogentisic acid (HGA) [3]; [10]): 28728.7 μmol/24h
u-HGA24, min (homogentisic acid (HGA) [3]; [10]): 17075.1 μmol/24h
u-HGA24, max (homogentisic acid (HGA) [3]; [11]): 223.0 μmol/24h
u-HGA24, mean (homogentisic acid (HGA) [3]; [11]): 146.3 μmol/24h
u-HGA24, median (homogentisic acid (HGA) [3]; [11]): 140.4 μmol/24h
u-HGA24, min (homogentisic acid (HGA) [3]; [11]): 83.1 μmol/24h
Relative decrease in u-HGA24, max (homogentisic acid (HGA) [3]; 8 mg once daily oral): 99.70%
Relative decrease in u-HGA24, mean (homogentisic acid (HGA) [3]; 8 mg once daily oral): 99.41%
Relative decrease in u-HGA24, median (homogentisic acid (HGA) [3]; 8 mg once daily oral): 99.52%
Relative decrease in u-HGA24, min (homogentisic acid (HGA) [3]; 8 mg once daily oral): 98.69%
Decrease of urinary excretion of HGA (up to) (homogentisic acid (HGA) [3]; 8 mg per day (highest dose)): > 99%
Suppression of the formation of HGA, estimated (homogentisic acid (HGA) [3]; 10 mg per day, estimated): almost completely
Decrease of u-HGA in a majority of patients, estimated by extrapolation (homogentisic acid (HGA) [3]; 15 mg per day, extrapolation): about 99.9%
Suppression of the formation of HGA (homogentisic acid (HGA) [3]; considerably higher doses than previously used in alkaptonuria): more than 99%
u-HGA24 of one patient (homogentisic acid (HGA) [3]; one patient on 2 mg, week 4): 3484 µmol
